Patent US5288709A, “Erythromycin derivatives” (priority 1991, dated 1994)
≈ marks a conversion by molar mass, not a printed value. Where two headings read alike, the source gives them in different places.

Tests used:
Experiment in all cases: In-vitro antimicrobial activity primary screen (agar dilution MIC)
Format in all cases: cell-based
Acinetobacter SP CMX 669 = settings: Acinetobacter, SPCMX669, 24 h
Method in brief: (§1)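 Agar dilution in BHI agar, 12 successive aqueous dilutions; Steers replicator inoculum 1:100, 1:10 for slow-growing Streptococcus; 35-37° C, 20-24 h. Drug-free plates at start and end; same-class reference drug plate. MIC = lowest conc with no growth/slight haze/sparse colonies.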

[1] = test system: Enterobacter aerogenes ATCC 13048; settings: Klebsiella aerogenes, ATCC13048, 24 h
Method in brief: as §1

[2] = test system: Enterococcus faecium ATCC 8043
Method in brief: as §1

Escherichia coli DC-2 = test system: Escherichia coli DC-2
Method in brief: as §1

Escherichia coli H560 = test system: Escherichia coli H560
Method in brief: as §1

Escherichia coli JUHL = test system: Escherichia coli JUHL
Method in brief: as §1

Escherichia coli SS = settings: BHI agar, 20-24 h, read-out: MIC
Method in brief: as §1

[3] = test system: Klebsiella pneumoniae ATCC 8045; settings: Klebsiella pneumoniae, ATCC8045, 24 h
Method in brief: as §1

[4] = test system: Micrococcus luteus ATCC 4698; settings: 20-24 h
Method in brief: as §1

[5] = test system: Micrococcus luteus ATCC 9341; settings: 20-24 h
Method in brief: as §1

[6] = test system: Providencia stuartii CMX 640; settings: Providencia stuartii, CMX640, 24 h
Method in brief: as §1

[7] = test system: Pseudomonas aeruginosa A5007; settings: Pseudomonas aeruginosa, A5007, 24 h
Method in brief: as §1

[8] = test system: Pseudomonas aeruginosa BMH10; settings: Pseudomonas aeruginosa, BMH10, 24 h, BHI agar, 20-24 h
Method in brief: as §1

[9] = test system: Pseudomonas aeruginosa K799/61; settings: Pseudomonas aeruginosa K799/61; BHI agar, 20-24 h; read-out: MIC
Method in brief: as §1

[10] = test system: Pseudomonas aeruginosa K799/WT; settings: Pseudomonas aeruginosa, K799/WT, 24 h
Method in brief: as §1

Pseudomonas cepacia 2961 = settings: Burkholderia cepacia, 2961, 24 h, BHI agar, 20-24 h
Method in brief: as §1

[11] = test system: Staphylococcus aureus 45 RAR2; settings: Staphylococcus aureus, 45RAR2, 24 h, BHI agar, 20-24 h
Method in brief: as §1

Staphylococcus aureus 45 = settings: BHI agar, 20-24 h
Method in brief: as §1

[12] = test system: Staphylococcus aureus 642A; settings: BHI agar, 20-24 h, read-out: MIC
Method in brief: as §1

[13] = test system: Staphylococcus aureus A5177; settings: Staphylococcus aureus, A5177, 24 h
Method in brief: as §1

[14] = test system: Staphylococcus aureus ATCC 6538P; settings: Staphylococcus aureus, ATCC6538P, 24 h, BHI agar, 20-24 h
Method in brief: as §1

[15] = test system: Staphylococcus aureus NCTC 10649; settings: NCTC10649, BHI agar, 20-24 h, read-out: MIC
Method in brief: as §1

[16] = test system: Staphylococcus epidermidis 3519; settings: BHI agar, 20-24 h
Method in brief: as §1

[17] = test system: Streptococcus agalactiae CMX 508; settings: 20-24 h
Method in brief: as §1

[18] = test system: Streptococcus bovis A5169; settings: Streptococcus equinus, BHI agar, 20-24 h
Method in brief: as §1

[19] = test system: Streptococcus pyrogenes 2548 INDUC; settings: BHI agar, 20-24 h, read-out: MIC
Method in brief: as §1

[20] = test system: Streptococcus pyrogenes EES61; settings: BHI agar, 20-24 h
Method in brief: as §1

[21] = test system: Staphylococcus aureus CMX 553; settings: Staphylococcus aureus, CMX553, 24 h, BHI agar, 20-24 h, read-out: MIC
Method in brief: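 MIC is read as the lowest compound level yielding no growth, slight haze or sparse colonies on the inoculum spot, relative to a drug-free plate. Strains were replicator-inoculated (1:100 dilution) onto BHI agar plates holding twelve dilutions and held at 35-37 °C for 20-24 h, with erythromycin A as comparator.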

SMILES: CC[C@H]1OC(=O)[C@H](C)[C@@H](O[C@H]2C[C@@](C)(OC)[C@H](O)[C@H](C)O2)[C@H](C)[C@@H](O[C@@H]2O[C@H](C)C[C@H](N(C)C)[C@H]2O)[C@](C)(O)C[C@@H](C)[C@@H]2O[C@@]1(C)C(=O)[C@H]2C [Example 21, (4"R,9S)-9-Deoxo-11,12-dideoxy-9,12-epoxy-11-oxoerythromycin A]
- MIC (Acinetobacter SP CMX 669): 0.39 mg/L (≈ 0.545 µM)
- MIC ([1]; Enterobacter aerogenes ATCC 13048, BHI agar, 20-24 h): 6.2 mg/L (≈ 8.66 µM)
- MIC ([2]; ATCC8043, Enterococcus faecium ATCC 8043, BHI agar, 20-24 h, read-out: MIC): 0.05 mg/L (≈ 0.0698 µM)
- MIC (Escherichia coli DC-2; DC2, Escherichia coli DC-2, BHI agar, 20-24 h, read-out: MIC): 3.1 mg/L (≈ 4.33 µM)
- MIC (Escherichia coli H560; Escherichia coli H560, BHI agar, 20-24 h, read-out: MIC): 0.78 mg/L (≈ 1.09 µM)
- MIC (Escherichia coli JUHL; Escherichia coli JUHL, BHI agar, 20-24 h, read-out: MIC): 1.56 mg/L (≈ 2.18 µM)
- MIC (Escherichia coli SS): 0.1 mg/L (≈ 0.14 µM)
- MIC [3]: 1.56 mg/L (≈ 2.18 µM)
- MIC ([4]; ATCC4698, BHI agar, read-out: MIC): 0.05 mg/L (≈ 0.0698 µM)
- MIC ([5]; Micrococcus luteus, ATCC9341, 24 h, BHI agar): ≤ 0.005 mg/L
- MIC [6]: > 100 mg/L
- MIC [7]: > 100 mg/L
- MIC [8]: 12.5 mg/L (≈ 17.5 µM)
- MIC [9]: 0.39 mg/L (≈ 0.545 µM)
- MIC [10]: 100 mg/L (≈ 140 µM)
- MIC (Pseudomonas cepacia 2961): > 100 mg/L
- MIC [11]: 0.2 mg/L (≈ 0.279 µM)
- MIC (Staphylococcus aureus 45; read-out: MIC): 0.1 mg/L (≈ 0.14 µM)
- MIC [12]: 0.2 mg/L (≈ 0.279 µM)
- MIC ([13]; Staphylococcus aureus A5177, BHI agar, 20-24 h): 1.56 mg/L (≈ 2.18 µM)
- MIC [14]: 0.2 mg/L (≈ 0.279 µM)
- MIC [15]: 0.2 mg/L (≈ 0.279 µM)
- MIC ([16]; read-out: MIC): 0.2 mg/L (≈ 0.279 µM)
- MIC ([17]; CMX508, BHI agar, read-out: MIC): 0.01 mg/L (≈ 0.014 µM)
- MIC ([18]; read-out: MIC): 0.01 mg/L (≈ 0.014 µM)
- MIC [19]: 1.56 mg/L (≈ 2.18 µM)
- MIC ([20]; read-out: MIC): 0.01 mg/L (≈ 0.014 µM)
- MIC [21]: 0.2 mg/L (≈ 0.279 µM)

SMILES: CC[C@H]1OC(=O)[C@H](C)[C@@H](O[C@H]2C[C@@](C)(OC)[C@@H](O)[C@H](C)O2)[C@H](C)[C@@H](O[C@@H]2O[C@H](C)C[C@H](N(C)C)[C@H]2O)[C@](C)(OC)C[C@@H](C)C2=C(C)C(=O)[C@]1(C)O2 [Example 27, 9,10-Dihehydro-9-deoxo-11,12-dideoxy-9,12-epoxy-6-O-methyl-11-oxoerythromycin A]
- MIC [1]: > 100 mg/L
- MIC ([2]; Enterococcus faecium, ATCC8043, 24 h): 0.1 mg/L (≈ 0.137 µM)
- MIC (Escherichia coli DC-2; Escherichia coli, DC2, 24 h): > 100 mg/L
- MIC (Escherichia coli H560; Escherichia coli, H560, 24 h): 100 mg/L (≈ 137 µM)
- MIC (Escherichia coli JUHL; Escherichia coli, 24 h): > 100 mg/L
- MIC (Escherichia coli SS): 0.78 mg/L (≈ 1.07 µM)
- MIC [3]: > 100 mg/L
- MIC ([4]; Micrococcus luteus, ATCC4698, 24 h, BHI agar): 0.2 mg/L (≈ 0.275 µM)
- MIC ([5]; ATCC9341, BHI agar, read-out: MIC): 0.05 mg/L (≈ 0.0687 µM)
- MIC [6]: > 100 mg/L
- MIC [7]: > 100 mg/L
- MIC [8]: 100 mg/L (≈ 137 µM)
- MIC [10]: > 100 mg/L
- MIC (Pseudomonas cepacia 2961): > 100 mg/L
- MIC [11]: 0.39 mg/L (≈ 0.536 µM)
- MIC (Staphylococcus aureus 45; Staphylococcus aureus, 45, 24 h): 3.1 mg/L (≈ 4.26 µM)
- MIC [12]: 0.39 mg/L (≈ 0.536 µM)
- MIC [13]: 0.39 mg/L (≈ 0.536 µM)
- MIC [14]: 0.39 mg/L (≈ 0.536 µM)
- MIC [15]: 0.39 mg/L (≈ 0.536 µM)
- MIC ([16]; Staphylococcus epidermidis, 3519, 24 h): 0.39 mg/L (≈ 0.536 µM)
- MIC ([17]; Streptococcus agalactiae, CMX508, 24 h, BHI agar): 0.05 mg/L (≈ 0.0687 µM)
- MIC ([18]; A5169, 24 h): 0.05 mg/L (≈ 0.0687 µM)
- MIC [19]: 100 mg/L (≈ 137 µM)
- MIC ([20]; Streptococcus, EES61, 24 h): 0.05 mg/L (≈ 0.0687 µM)
- MIC [21]: 0.39 mg/L (≈ 0.536 µM)
